Series [1] can be described thus: Determination of Log P values of 99mTc-SAAC complexes. The class given is physicochemical. Particulars: 99mTc complex; n-octanol / 25 mM pH=7.4 phosphate buffer. The protocol: Determination of Log P Values. The Log P values of the ^99mTc(I)-complexes were determined as follows. The ^99mTc-SAAC complexes were prepared and purified by RP-HPLC. The desired peak was collected and the sample was evaporated under a stream of nitrogen. The residue was dissolved in 25 μL of saline and placed in an equal volume of n-octanol (3 mL) and 25 mM pH=7.4 phosphate buffer (3 mL). The samples were mixed under vortex for 20 min, centrifuged at 8000 rpm for 5 min and three 100 μL aliquots were removed from both the aqueous and the organic layers for analysis on a gamma counter (Wallac 1282). Subsequently, 1 mL of the phosphate bufferTc-complex solution was removed and the process was repeated with fresh n-octanol, for a total number of six extractions to ensure full extraction of all the organic components. The partition coefficients were calculated using the equation: P=(activity concentration in n-octanol)/(activity concentration in aqueous layer). The Log P values reported were calculated from the average of the different measurements.

Series [2] can be described thus: Complex stability: 99mTc cysteine and histidine challenge experiments. It counts as physicochemical. Particulars: for time stable to excess histidine and cysteine challenges: 99mTc-SAAC complex, 37° C. The protocol:
3. Tc-99m labeling. [^99mTc(CO)3(H2O)3]^+ was heated with [8-{N,N-di(pyridyl-2-methyl)}α-(fmoc)lysine] (DpK) in 0.5 mL (1 mg/mL) of methanol at 100° C. for 30 minutes. […] Labeling yields of >50% RCY, were achievable at levels as low as 2 μg/mL.
Complex stability: ^99mTc challenge experiments. The complexes were analyzed by HPLC for stability against cysteine and histidine challenge over time.

A short description of series [3]: Rat tissue distribution of 99mTc complexes of example ligands (Table 6). It counts as in vivo, Sprague-Dawley Rats. Particulars: 99mTc complex. Here is the method:
Rat Tissue Distribution Studies. The distribution and pharmacokinetics of selected ^99mTc-SAAC complexes were evaluated in normal male Sprague Dawley rats (180-200 grams) administered via the tail vein as a bolus injection (approximately 10 μCi/rat) in a constant volume of 0.1 ml. The animals (n=5 per time point) were euthanized by asphyxiation with carbon dioxide at 5, 30, 60, and 120 min post injection. Tissues (blood, heart, lungs, liver, spleen, kidneys, adrenals, stomach, intestines (with contents), testes, skeletal muscle, bone and brain) were dissected, excised, weighed wet, and counted in an automated γ-counter (LKB Model 1282, Wallac Oy, Finland). Tissue time-radioactivity levels expressed as percent injected dose per gram of tissue (% ID/g) was determined.
^99mTc Complexes of various example ligands in Sprague-Dawley Rats.

Series [4] has as its target CA-II (Homo sapiens (Human), UniProt P00918). As to the kind of experiment: Inhibition of carbonic anhydrase enzyme activity (4-nitrophenyl acetate hydrolysis), CA-II. The class given is biochemical. Particulars: purified human enzyme, pH 7.4, 25° C. Here is the method:
(§1) Selective Inhibition of Carbonic Anhydrase Enzyme Activity. Compounds were tested for their ability to inhibit carbonic anhydrase isozymes II and IX in vitro. Purified human enzymes were from R&D Systems (Minneapolis, Minn.). The inhibition constants (Ki) for CA-II and CA-IX were determined by the method of Pocker and Stone. Initial rates of 4-nitrophenyl acetate hydrolysis catalyzed by the different carbonic anhydrase isozymes were measured spectrophotometrically at 400 nm. Solutions of substrate (1×10^−2 to 1×10^−6 M) were prepared in anhydrous acetonitrile. A molar extinction coefficient of 18,000 M^−1·cm^−1 was used for the 4-nitrophenolate formed by hydrolysis under the conditions of the experiment (9 mM Tris-HCl, 81 mM NaCl, pH 7.4, 25° C.). The enzyme concentrations were 100 nM for CA-IX and 30 nM for CA-II. Non-enzymatic hydrolysis rates, determined in the absence of added enzyme, were subtracted from the observed rates. […] Dilutions of inhibitor were added to enzyme solutions and preincubated for 10 min to allow for the formation of the E-I complex prior to the addition of substrate. Acetazolamide was included in all assays as positive controls.

Series [5] addresses CA-IX (Homo sapiens (Human), UniProt Q16790). As to the kind of experiment: Inhibition of carbonic anhydrase enzyme activity (4-nitrophenyl acetate hydrolysis), CA-IX. It counts as biochemical. Particulars: purified human enzyme, pH 7.4, 25° C. The protocol: as §1
Series [6] is described as follows: Normal rat tissue distribution studies of 99mTc-SAAC complexes (Table 5). The class given is in vivo, male Sprague Dawley rats. Particulars: tail vein, average ± SEM. The protocol:
Normal Rat Tissue Distribution Studies. Normal rat tissue distribution studies were performed with [^99mTc(CO)3{η^3-(DpK)}], [Tc(CO)3{η^3-(DTK)}] and [Tc(CO)3{η^3-(PAMAK)}] in groups of male Sprague Dawley rats (n=4/group, 180-200 grams each) at 5, 30, 60, and 120 minutes post injection. The compounds were injected via the tail vein in saline (10 μCi/100 μl). […] All three SAAC ligands had very high accumulation and retention in the gastrointestinal (GI) tract. […] The design of hydrophilic SAAC ligands may alter the pharmacokinetics by mitigating the lipophilicity of the complex and potentially favoring renal, over liver and GI clearance. Such a result may facilitate the development of clinically relevant molecular imaging radiopharmaceuticals with desirable pharmacokinetic properties.

`NC(CCCCN1CC(=O)[O][Tc-][O]C(=O)C1)C(=O)O.[C-]#[O+].[C-]#[O+].[C-]#[O+]` (centres unmarked) [Compound 7-Tc]: the “Log P” value in series [1] is −2.20.

Take `N[C@@H](CCCCN(Cc1ccccn1)Cc1ccccn1)C(=O)O` [DpK, [ε-{N,N-di(pyridyl-2-methyl)}α-lysine], reference compound]: the “Log P” value in series [1] is recorded as −1.89. Further, in series [2] (100 mM cysteine or histidine in PBS pH 7.2, 37° C., 18 h), the “degradation by HPLC after cysteine or histidine challenge” value is listed as “no degradation”. Moreover, the “time stable to excess histidine and cysteine challenges” value in series [2] is recorded as “more than 18 hours”. Besides, in series [3] (5 min), the Blood tissue distribution was determined as 0.58 ± 0.05 % ID/g, the GI tissue distribution is recorded as 0.49 ± 0.08 % ID/g, the Kidney tissue distribution stood at 6.05 ± 1.03 % ID/g and the Liver tissue distribution is listed as 3.36 ± 0.44 % ID/g. In addition, the “Sk. Muscle tissue distribution” value in series [3] (5 min) is 0.18 ± 0.02 % ID/g. For the same compound, in series [3] (30 min), the Blood tissue distribution was 0.07 ± 0.01 % ID/g, the GI tissue distribution was 0.89 ± 0.07 % ID/g, the Kidney tissue distribution is on record as 4.94 ± 0.11 % ID/g and the Liver tissue distribution is 2.75 ± .011 % ID/g. The “Sk. Muscle tissue distribution” value in series [3] (30 min) is 0.03 ± 0.00 % ID/g. In series [3] (60 min), this compound registered a Blood tissue distribution of 0.03 ± 0.01 % ID/g, a GI tissue distribution of 1.46 ± 0.09 % ID/g, a Kidney tissue distribution of 4.93 ± 0.43 % ID/g and a Liver tissue distribution of 2.59 ± 0.08 % ID/g. The “Sk. Muscle tissue distribution” value in series [3] (60 min) was found to be 0.03 ± 0.01 % ID/g. In addition, in series [3] (120 min), the Blood tissue distribution worked out at 0.01 ± 0.00 % ID/g, the GI tissue distribution was 2.73 ± 0.57 % ID/g, the Kidney tissue distribution is on record as 3.89 ± .042 % ID/g and the Liver tissue distribution is 2.20 ± 0.06 % ID/g. Besides, the “Sk. Muscle tissue distribution” value in series [3] (120 min) was determined as 0.01 ± 0.00 % ID/g.

Regarding `N[C@@H](CCCCN(Cc1nccs1)Cc1nccs1)C(=O)O` [DtK, (dithiazole)lysine], the “Log P” value in series [1] was −2.40. Besides, the “time stable to excess histidine and cysteine challenges” value in series [2] is given as “more than 18 hours”. In series [3] (5 min), this compound returned a Blood tissue distribution of 3.32 ± 0.82 % ID/g, a GI tissue distribution of 0.3 ± 0.15 % ID/g, a Kidney tissue distribution of 3.26 ± 1.04 % ID/g and a Liver tissue distribution of 1.7 ± 0.42 % ID/g. The “Sk. Muscle tissue distribution” value in series [3] (5 min) is on record as 0.16 ± 0.05 % ID/g. In series [3] (30 min), this compound came in with a Blood tissue distribution of 2.33 ± 0.26 % ID/g, a GI tissue distribution of 0.59 ± 0.13 % ID/g, a Kidney tissue distribution of 4.71 ± 0.41 % ID/g and a Liver tissue distribution of 1.93 ± 0.15 % ID/g. Further, in series [3] (30 min), the “Sk. Muscle tissue distribution” value is recorded as 0.16 ± 0.01 % ID/g. In series [3] (60 min), the Blood tissue distribution was found to be 1.4 ± 0.07 % ID/g, the GI tissue distribution is recorded as 0.73 ± 0.29 % ID/g, the Kidney tissue distribution is on record as 4.78 ± 0.14 % ID/g and the Liver tissue distribution is listed as 2.05 ± .041 % ID/g. Moreover, the “Sk. Muscle tissue distribution” value in series [3] (60 min) is listed as 0.15 ± 0.02 % ID/g. Moreover, in series [3] (120 min), the Blood tissue distribution stood at 0.76 ± 0.12 % ID/g, the GI tissue distribution was 0.87 ± 0.2 % ID/g, the Kidney tissue distribution amounted to 4.83 ± 0.41 % ID/g and the Liver tissue distribution amounted to 2.61 ± 0.31 % ID/g. In series [3] (120 min), the “Sk. Muscle tissue distribution” value is reported as 0.12 ± 0.01 % ID/g.

In the case of “(pyridylamine)monoacetic acid lysine [PAMA-K]”, in series [1], the “Log P” value is −1.80.

With “[Re(CO)3][2-((pyridin-2-ylmethyl)(4-sulfamoylphenethyl)amino)acetic acid] [Compound 23-Re]”, the results for the IC50 in series [4] and in series [5] were 652 nM and 564 nM, respectively.

With [^99mTc(CO)3(DPK)], in series [6] (5 Min post injection), the Blood tissue distribution is 7.01 ± 1.38 % ID/g, the GI tissue distribution is 4.65 ± 1.78 % ID/g, the Kidney tissue distribution is listed as 8.88 ± 3.20 % ID/g and the Liver tissue distribution was determined as 16.28 ± 5.12 % ID/g. In series [6] (30 Min. post injection), this compound displayed a Blood tissue distribution of 1.12 ± 0.31 % ID/g, a GI tissue distribution of 15.01 ± 1.82 % ID/g, a Kidney tissue distribution of 9.72 ± 0.68 % ID/g and a Liver tissue distribution of 26.03 ± 1.50 % ID/g. In series [6] (60 Min. post injection), this compound gave a Blood tissue distribution of 0.39 ± 0.16 % ID/g, a GI tissue distribution of 24.46 ± 6.20 % ID/g, a Kidney tissue distribution of 9.47 ± 1.23 % ID/g and a Liver tissue distribution of 22.71 ± 1.14 % ID/g. In series [6] (120 Min post injection), this compound had a Blood tissue distribution of 0.18 ± 0.01 % ID/g, a GI tissue distribution of 38.90 ± 5.94 % ID/g, a Kidney tissue distribution of 7.08 ± 1.58 % ID/g and a Liver tissue distribution of 14.44 ± 2.75 % ID/g.
